According to PMC3759959, “Design, Synthesis and Antiviral Activity Studies of Schizonepetin Derivatives” (International Journal of Molecular Sciences, 2013):
Read-outs that look alike come from different tables or passages of the source.

Key:
[1] = test system: Vero cells; experiment: Cytotoxicity by CPE assay in Vero cells; type: cell-based; details: 72 h
Protocol: (§1) The cytotoxicity was evaluated by cytopathic effect (CPE) inhibition assay. Vero cells were seeded into 96-well plates. After cells had been incubated for 24 h at 37 °C in 5% CO2, they were exposed to drugs with two-fold serial dilutions. Untreated Vero cells were used as controls. All cultures were incubated again in 5% CO2 at 37 °C for 72 h. The cells were examined microscopically for the cytotoxicity effects. Then TC50 were calculated by the Reed-Muench method.

[2] = test system: HSV-1 virus; experiment: Anti HSV-1 CPE inhibition assay in Vero cells; details: for IC50: read-out: IC50, antiviral activity against HSV-1 virus; for antiviral activity against HSV-1 (in words): in vitro
[3] = test system: influenza virus H3N2; experiment: Anti-H3N2 CPE inhibition assay in MDCK cells; details: for IC50: read-out: IC50, antiviral activity against H3N2 virus; for antiviral activity against influenza virus H3N2 (in words): in vitro
[4] = test system: MDCK cells; experiment: Cytotoxicity against MDCK cells by CPE assay; type: cell-based
Protocol: as §1
The procedures for Anti-H3N2 studies and cytotoxicity against MDCK cells in vitro by CPE inhibition assay were similar to Anti HSV-1 studies and cytotoxicity against Vero cells.

[5] = test system: H1N1; details: previous study; cited from earlier work
[6] = test system: abdominal capillary permeability; details: cited from earlier work
[7] = Human alphaherpesvirus 1, Vero, 72 h
[8] = cytotoxicity, Vero cells, Reed-Muench method

SMILES | TC50 (Antiviral activity against HSV-1 virus section) ([1]; African green monkey) [µM] | IC50 [2, 7] [µM] | TI (TC50/IC50), HSV-1 virus [2] | IC50 ([3]; Influenza A virus, H3N2, MDCK) [µM] | TC50 (Antiviral activity against HSV-1 virus section) [1, 8] [µM] | TC50 (Antiviral activity against H3N2 virus section) [4] [µM] | antiviral activity against HSV-1 (in words) ([2]; CPE inhibition) | antiviral activity against influenza virus H3N2 (in words) ([3]; CPE inhibition) | TI (TC50/IC50), H3N2 virus [3] | therapeutic effect on the H1N1 infected mice [5] | IC50 ([3]; CPE inhibition, MDCK cells) [µM] | IC50 ([2]; CPE inhibition, Vero cells, 30 TCID50, 72 h) [µM] | effect on increase of abdominal capillary permeability by HAc [6]
Nc1nc2c(ncn2COCCO)c(=O)[nH]1 [Aciclovir, reference compound] | >666.0 | 4.9 | >136.4 |  |  |  |  |  |  |  |  |  | 
CO[C@@]12C[C@H](C)CCC1=C(C)C(=O)O2 [M1, (6R,7aR)-7a-Methoxy-3,6-Dimethyl-5,6,7,7a-Tetrahydrobenzofuran-2(4H)-One] |  | > 11.5 |  | > 39.1 | 366.8 | 298.5 |  |  |  |  |  |  | 
CCO[C@@]12C[C@H](C)CCC1=C(C)C(=O)O2 [M2, (6R,7aR)-7a-Ethoxy-3,6-Dimethyl-5,6,7,7a-Tetrahydrobenzofuran-2(4H)-One] |  | 100 | 2.5 | > 39.1 | 246.7 | 139.5 | obvious antiviral activity |  |  |  |  |  | 
CC(=O)O[C@@]12C[C@H](C)CCC1=C(C)C(=O)O2 [M4, (6R,7aR)-3,6-Dimethyl-2-oxo-2,4,5,6,7,7a-Hexahydrobenzofuran-7a-Yl Acetate] |  | 93.8 | 4.0 | > 39.1 | 374.6 | 319.2 | obvious antiviral activity |  |  |  |  |  | 
CCC(=O)O[C@@]12C[C@H](C)CCC1=C(C)C(=O)O2 [M5, (6R,7aR)-3,6-Dimethyl-2-oxo-2,4,5,6,7,7a-Hexahydrobenzofuran-7a-yl Propionate] |  | 26.9 | 2.5 | > 39.1 | 66.0 | 39.1 | obvious antiviral activity |  |  |  |  |  | 
CC1=C2CC[C@@H](C)C[C@]2(OC(=O)c2ccccc2)OC1=O [M8, (6R,7aS)-3,6-Dimethyl-2-Oxo-2,4,5,6,7,7a-Hexahydrobenzofuran-7a-yl Benzoate] |  | > 11.5 |  | > 39.1 | 24.8 | 54.2 |  |  |  |  |  |  | 
CC1=C2CC[C@@H](C)C[C@]2(OC(=O)c2ccc([N+](=O)[O-])cc2)OC1=O [M9, (6R,7aS)-3,6-Dimethyl-2-Oxo-2,4,5,6,7,7a-Hexahydrobenzofuran-7a-yl 4-Nitrobenzoate] |  | > 11.5 |  | > 39.1 | 216.0 | 216.0 |  |  |  |  |  |  | 
CC1=C2CC[C@@H](C)C[C@]2(OC(=O)c2ccc(I)cc2)OC1=O [M10, (6R,7aS)-3,6-Dimethyl-2-Oxo-2,4,5,6,7,7a-Hexahydrobenzofuran-7a-yl 4-Iodobenzoate] |  | > 11.5 |  | > 39.1 | 44.2 | 41.3 |  | little effect |  |  |  |  | 
CC1=C2CC[C@@H](C)C[C@]2(OC(=O)c2ccc(Cl)cc2)OC1=O [M11, (6R,7aS)-3,6-Dimethyl-2-Oxo-2,4,5,6,7,7a-Hexahydrobenzofuran-7a-yl 4-Chlorobenzoate] |  | > 11.5 |  | > 39.1 | 47.1 | 47.1 |  | little effect |  |  |  |  | 
CC1=C2CC[C@@H](C)C[C@@]2(OC(=O)c2cccnc2)OC1=O [M21, (6R,7aS)-3,6-Dimethyl-2-Oxo-2,4,5,6,7,7a-Hexahydrobenzofuran-7a-yl Nicotinate] |  | > 11.5 |  | > 39.1 | 439.0 | 180.5 |  |  |  |  |  |  | 
CC1=C2CC[C@@H](C)C[C@]2(OC(=O)c2ccc(F)cc2)OC1=O [M22, (6R,7aS)-3,6-Dimethyl-2-Oxo-2,4,5,6,7,7a-Hexahydrobenzofuran-7a-yl 4-Fluorobenzoate] |  | > 11.5 |  | > 39.1 | 87.8 | 60.5 |  | little effect |  |  |  |  | 
CC1=C2CC[C@@H](C)C[C@]2(OC(=O)c2cccc(Cl)c2)OC1=O [M25, (6R,7aS)-3,6-Dimethyl-2-Oxo-2,4,5,6,7,7a-Hexahydrobenzofuran-7a-yl 3-Chlorobenzoate] |  | > 11.5 |  | > 39.1 | 11.5 | 80.8 |  | little effect |  |  |  |  | 
CC1=C2CC[C@@H](C)C[C@@]2(OC(=O)c2cccs2)OC1=O [M27, (6R,7aS)-3,6-Dimethyl-2-Oxo-2,4,5,6,7,7a-Hexahydrobenzofuran-7a-yl Thiophene-2-Carboxylate] |  | > 11.5 |  | > 39.1 | 100.3 | 177.4 |  |  |  |  |  |  | 
CC1=C2CC[C@@H](C)C[C@]2(OC(=O)c2cccc(F)c2)OC1=O [M28, (6R,7aS)-3,6-Dimethyl-2-Oxo-2,4,5,6,7,7a-Hexahydrobenzofuran-7a-yl 3-Fluorobenzoate] |  | > 11.5 |  | 34.5 | 170.4 | 96.4 |  | high antiviral activity | 2.8 |  |  |  | 
CC1=C2CC[C@@H](C)C[C@]2(OC(=O)c2cccc(I)c2)OC1=O [M29, (6R,7aS)-3,6-Dimethyl-2-oxo-2,4,5,6,7,7a-Hexahydrobenzofuran-7a-yl 3-Iodobenzoate] |  | > 11.5 |  | > 39.1 | 45.4 | 71.1 |  | little effect |  |  |  |  | 
CC1=C2CC[C@@H](C)C[C@]2(OC(=O)c2cccc(Br)c2)OC1=O [M31, (6R,7aS)-3,6-Dimethyl-2-Oxo-2,4,5,6,7,7a-Hexahydrobenzofuran-7a-yl 3-Bromobenzoate] |  | > 11.5 |  | > 39.1 | 80.3 | 80.3 | little effect | little effect |  |  |  |  | 
CC1=C2CC[C@@H](C)C[C@]2(OC(=O)c2ccc(Br)cc2)OC1=O [M33, (6R,7aS)-3,6-Dimethyl-2-Oxo-2,4,5,6,7,7a-Hexahydrobenzofuran-7a-yl 4-Bromobenzoate] |  | > 11.5 |  | 13.7 | 80.3 | 71.0 | little effect | high antiviral activity | 5.2 |  |  |  | 
CC1=C2CC[C@@H](C)C[C@@]2(OC(=O)c2ccccc2Br)OC1=O [M34, (6R,7aS)-3,6-Dimethyl-2-Oxo-2,4,5,6,7,7a-Hexahydrobenzofuran-7a-yl 2-Bromobenzoate] |  | 17.1 | 4.7 | > 39.1 | 80.3 | 71.0 | obvious antiviral activity | little effect |  |  |  |  | 
CC1=C2CC[C@@H](C)C[C@@]2(OC(=O)c2ccc(C(F)(F)F)cc2)OC1=O [M35, (6R,7aS)-3,6-Dimethyl-2-Oxo-2,4,5,6,7,7a-Hexahydrobenzofuran-7a-yl 4-(Trifluoromethyl) Benzoate] |  | > 11.5 |  | 29.7 | 82.8 | 75.4 |  | high antiviral activity | 2.5 |  |  |  | 
NC(=O)c1ncn([C@@H]2O[C@H](CO)[C@@H](O)[C@H]2O)n1 [Ribavirin, reference compound] |  |  |  | 1020 |  |  |  |  |  |  |  |  | 
CC1=C2CC[C@@H](C)C[C@@]2(O)OC1=O [Schizonepetin] |  |  |  |  | 834.2 | 829.4 | low antiviral activity | low antiviral activity |  | obviously positive therapeutic effect | > 39.1 | > 11.5 | inhibit the increase of abdominal capillary permeability
